Broadly, the IC50 is the point on the concentration scale where inhibition reaches its midpoint.

Counter-ions that a name gives are not always drawn.

These results are taken from patent publication US20070265289A1, “2-Aminopyrimidine Derivative” (priority 2004, published 2007).

One experiment deals with T1, rat IKK2 (Rattus norvegicus, UniProt Q9QY78).
T1 construct: ORF of rat IKK2 (GenBank AF115282) was cloned from a rat pancreas cDNA library; FLAG; made in house; host or cells: Sf9 insect cells
T1 sequence (Q9QY78 1-757): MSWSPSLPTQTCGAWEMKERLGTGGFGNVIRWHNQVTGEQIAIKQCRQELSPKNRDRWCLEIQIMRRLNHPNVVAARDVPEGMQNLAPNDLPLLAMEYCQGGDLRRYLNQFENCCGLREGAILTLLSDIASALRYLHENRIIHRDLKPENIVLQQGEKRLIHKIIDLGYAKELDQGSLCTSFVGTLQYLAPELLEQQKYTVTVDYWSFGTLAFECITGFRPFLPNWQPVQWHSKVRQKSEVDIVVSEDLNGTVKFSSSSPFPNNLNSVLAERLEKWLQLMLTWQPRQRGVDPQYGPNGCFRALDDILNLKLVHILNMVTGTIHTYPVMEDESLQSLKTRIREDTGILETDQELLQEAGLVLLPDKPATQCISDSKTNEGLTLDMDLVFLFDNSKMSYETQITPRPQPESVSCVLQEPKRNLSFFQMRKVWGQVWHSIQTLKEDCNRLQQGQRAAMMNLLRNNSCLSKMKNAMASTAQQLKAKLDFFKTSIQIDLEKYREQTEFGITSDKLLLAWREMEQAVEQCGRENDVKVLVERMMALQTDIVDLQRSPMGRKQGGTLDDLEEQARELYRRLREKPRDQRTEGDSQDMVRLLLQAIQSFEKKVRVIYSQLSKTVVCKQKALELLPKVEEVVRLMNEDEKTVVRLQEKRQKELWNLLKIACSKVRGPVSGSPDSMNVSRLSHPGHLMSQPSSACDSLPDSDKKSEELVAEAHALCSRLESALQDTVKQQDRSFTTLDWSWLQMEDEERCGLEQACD
The experiment in a line: Evaluation of rat IKK2 enzyme inhibition. It is filed as biochemical. Particulars: 0.5 μM ATP, probit analysis; read-out: IC50, rat IKK2 enzyme activity-inhibitory effect. How it is done:
(1) Evaluation of Rat IKK2 Enzyme Inhibition:
ORF of rat IKK2 (GenBank AF115282) was cloned from a rat pancreas cDNA library, and with a FLAG-tag attached thereto, it was expressed in an Sf9 cell line. The cells were dissolved in a cytolytic solution (50 mM Tris-HCl pH 7.5, 0.15M NaCl, 1% NP-40, 10% glycerol, 1 mM EDTA, 1 mM EGTA pH 7.5, 1 mM Na3VO4, 5 mM p-nitrophenylphosphate, 10 mM O-glycerophosphate, 1 mM DTT, 1 mM PMSF, 10 μg/ml leupeptin, 10 μg/ml aprotinin (by Sigma)) to prepare a large amount of an cell extract, which was then purified on an anti-FLAG M2 antibody (by Sigma). This experimental operation was carried out in accordance with gene manipulation experiment manuals such as known methods (Sambrook, J. et al, Molecular Cloning-A Laboratory Manual, Cold Spring Harbor laboratory, NY, 1989) or the instructions attached to the reagents. The purified rat IKK2 was stored in an enzyme preservative (20 mM Tris-HCl pH 7.5, 10% glycerol, 12.5 mM β-glycerophosphate, 0.5 mM EDTA, 0.5 mM EGTA, 0.05% Brij35, 1 mM DTT, 1 mM PMSF (by Sigma)) at −80° C.
The purified rat IKK2, 1× enzymatic reaction buffer (20 mM Tris-HCl pH 7.5, 12.5 mM O-glycerophosphate, 20 mM MgCl2, 0.1 mM DTT), 0.01% BSA (by Sigma), 0.5 μM ATP, 0.2 μM biotinated substrate peptide (18th to 49th amino acid residues of rat I-kappa B alpha (GenBank Q63746)) and a test compound dissolved in DMSO were added to a 384-well plate (catalogue No. 3677, by Corning) to be 10 μl in total therein, and left at room temperature for 90 minutes. Next, […] of a reaction stopper (100 mM Hepse pH 8, 0.01% BSA, 0.8 M KF, 50 mM EDTA pH 8, 1% Triton X-100, europium cryptate-labeled anti-phosphorylation I-kappa B alpha-antibody (by Santa Cru), streptoavidin-labeled XL665 (by Nihon Schering)) was added thereto, kept warmed for 30 minutes, and then assayed with DISCOVERY (by Perkin-Elmer). The rat IKK2 enzyme activity-inhibitory effect of the tested compound was obtained according to the following formula. Every dose was tested independently three times. Inhibition (%) by Test Compound=((mean value with rat IKK2 but not with test compound)−(mean value with both test compound and rat IKK2))/((mean value with rat IKK2 but not with test compound)−(mean value not with rat IKK2))×100.
As to `CCc1ccc(O)c(-c2cc(C3CCCNC3)nc(N)n2)c1` (single isomer, unassigned; (-)) [Example 78, (−)-2-(2-amino-6-piperidin-3-ylpyrimidin-4-yl)-4-ethylphenol dihydrochloride], the IC50 is at most 500 nM.

On to `Nc1nc(-c2ccccc2O)cc(C2CCCNC2)n1` (stereo not drawn) [Example 1, 2-(2-amino-6-piperidin-3-ylpyrimidin-4-yl)phenol dihydrochloride], for which the IC50 is at most 500 nM.

Regarding `CCOc1cccc(O)c1-c1cc(C2CCCNC2)nc(N)n1` (stereo not drawn) [Example 5, 2-(2-amino-6-piperidin-3-ylpyrimidin-4-yl)-3-ethoxyphenol dihydrochloride], the IC50 was at most 500 nM.

As to `Nc1nc(-c2c(O)cccc2O)cc(C2CCCNC2)n1` (stereo not drawn) [Example 10, 2-(2-amino-6-piperidin-3-ylpyrimidin-4-yl)benzene-1,3-diol dihydrochloride], the IC50 was at most 500 nM.

Take `Nc1nc(-c2cc(F)ccc2O)cc(C2CCCNC2)n1` (stereo not drawn) [Example 12]: the IC50 is at most 500 nM.

On to `Nc1nc(-c2ccc(F)cc2O)cc(C2CCCNC2)n1` (stereo not drawn) [Example 13], for which the IC50 was at most 500 nM.

For `Nc1nc(-c2cc(Cl)ccc2O)cc(C2CCCNC2)n1` (stereo not drawn) [Example 14], the IC50 is at most 500 nM.

Regarding `Cc1cc(O)c(-c2cc(C3CCCNC3)nc(N)n2)cc1Cl` (stereo not drawn) [Example 19], the IC50 is at most 500 nM.

Turning to `Cc1ccc(O)c(-c2cc(C3CCCNC3)nc(N)n2)c1` (stereo not drawn) [Example 22], the IC50 was at most 500 nM.

`COc1ccc(O)c(-c2cc(C3CCCNC3)nc(N)n2)c1` (stereo not drawn) [Example 26]: the IC50 was at most 500 nM.

As to `CSc1ccc(O)c(-c2cc(C3CCCNC3)nc(N)n2)c1` (stereo not drawn) [Example 28], the IC50 is at most 500 nM.

Regarding `Cc1cc(O)c(-c2cc(C3CCCNC3)nc(N)n2)c(OCC2CC2)c1` (stereo not drawn) [Example 40], the IC50 was at most 500 nM.

For the compound `COc1cccc(O)c1-c1cc(C2CCCNC2)nc(N)n1` (stereo not drawn) [Example 44], the IC50 was at most 500 nM.

For the compound `COCCOc1cccc(O)c1-c1cc(C2CCCNC2)nc(N)n1` (stereo not drawn) [Example 46], the IC50 is at most 500 nM.

For `Nc1nc(-c2c(O)cccc2OCc2ccccc2)cc(C2CCCNC2)n1` (stereo not drawn) [Example 47], the IC50 was at most 500 nM.

`Nc1nc(-c2c(O)cccc2OCCC2CCNCC2)cc(C2CCCNC2)n1` (stereo not drawn) [Example 48]: the IC50 is at most 500 nM.

Take `CC1CC1COc1cccc(O)c1-c1cc(C2CCCNC2)nc(N)n1` (stereo not drawn) [Example 65, 2-(2-amino-6-piperidin-3-ylpyrimidin-4-yl)-3-[(2-methylcyclopropyl)methoxy]phenol dihydrochloride]: the half-maximal inhibitory concentration (IC50) was at most 500 nM.

Take `Nc1nc(-c2c(O)cccc2OCC(F)(F)C(F)F)cc(C2CCCNC2)n1` (stereo not drawn) [Example 89]: the IC50 was at most 500 nM.

For `CC1(COc2cccc(O)c2-c2cc(C3CCCNC3)nc(N)n2)CC1` (stereo not drawn) [Example 99], the IC50 was at most 500 nM.

Turning to `CC(C)OCCOc1cccc(O)c1-c1cc(C2CCCNC2)nc(N)n1` (stereo not drawn) [Example 100], the IC50 is at most 500 nM.

Take `CC(C)COCCOc1cccc(O)c1-c1cc(C2CCCNC2)nc(N)n1` (stereo not drawn) [Example 101]: the IC50 is at most 500 nM.

With `CC(COc1cccc(O)c1-c1cc(C2CCCNC2)nc(N)n1)Oc1ccccc1` (stereo not drawn) [Example 103], the IC50 was at most 500 nM.

Regarding `Nc1nc(-c2c(O)cccc2OCCC2CC2)cc(C2CCCNC2)n1` (stereo not drawn) [Example 104], the IC50 is at most 500 nM.

On to `Nc1nc(-c2c(O)cccc2OCCCC(F)(F)F)cc(C2CCCNC2)n1` (stereo not drawn) [Example 106], for which the IC50 was at most 500 nM.

As to `Nc1nc(-c2c(O)cccc2OCc2ccc(Br)cc2)cc(C2CCCNC2)n1` (stereo not drawn) [Example 108], the IC50 is at most 500 nM.

`CC1CCC(Oc2cccc(O)c2-c2cc(C3CCCNC3)nc(N)n2)C1` (stereo not drawn) [Example 126]: the IC50 was at most 500 nM.

With `Cc1ccc(O)c(-c2cc(C3CNCC(C)C3)nc(N)n2)c1` (stereo not drawn) [Example 136], the IC50 is at most 500 nM.

Turning to `Cc1ccc(O)c(-c2cc(C3CCC(C)NC3)nc(N)n2)c1` (stereo not drawn) [Example 137], the IC50 is at most 500 nM.

As for `CC1CCC(c2cc(-c3c(O)cccc3OCC3CC3)nc(N)n2)CN1` (stereo not drawn) [Example 140], the IC50 is 2.9 nM.

Regarding `Nc1nc(-c2c(O)cccc2OCC2CC2)cc(C2CCNCC2)n1` [Example 145], the IC50 was at most 500 nM.

Regarding `CC(C)COc1cccc(O)c1-c1cc(C2CCNCC2)nc(N)n1` [Example 146], the IC50 was at most 500 nM.

Take `Nc1nc(-c2c(O)cccc2OCC(=O)c2ccccc2)cc(C2CCNCC2)n1` [Example 147]: the IC50 was at most 500 nM.

The subject of the next experiment is TNF-α production. The experiment in a line: Mouse LPS-induced TNF-α production model. It is filed as in vivo, Balb/c female mice. The following applies: Mus musculus, po, 1.5 h, oral administration of 30 mg/kg, 60 minutes before LPS, blood 90 minutes after LPS; read-out: inhibition of plasma TNF-α. On the procedure: (2) Mouse LPS-Induced TNF-α Production Model:
6 weeks old Balb/c female mice were placed into two groups, a control group and a test compound administration group. A solution containing 10 μg/mouse of LPS in 0.9% physiological salt was administered by intraperitoneal injection into the control mice. 60 minutes before the LPS administration, a compound of the invention was orally administered to the mice of the test compound administration group. Under anesthesia with diethyl ether, blood was collected from the posterior venous cavity of the mice of both the test compound administration group and the control group at 90 minutes after the LPS administration, and treated with heparin, and the plasma was separated from it through centrifugation at 10000 rpm at 4° C. for 10 minutes, and then diluted two-fold with PBS (pH 7.4).
The TNF-α concentration in the sample was determined with an ELISA kit (by Pharmingen, San Diego, Calif.). The inhibition by the mice of the test compound administration group relative to the mean inhibition by those of the control group was calculated as a mean value thereof.
The inhibition in oral administration of 30 mg/kg of compound (I) is shown below.
For the compound `CCc1ccc(O)c(-c2cc(C3CCCNC3)nc(N)n2)c1` (single isomer, unassigned; (+)) [Example 79, (+)-2-(2-amino-6-piperidin-3-ylpyrimidin-4-yl)-4-ethylphenol dihydrochloride], the inhibition in vivo at 30 mg/kg came out at 64%.

As to `Cc1ccc(O)c(-c2cc(C3CCCNC3)nc(N)n2)c1` (stereo not drawn) [Example 22], the inhibition in vivo at 30 mg/kg stood at 73%.

With `CC1CC1COc1cccc(O)c1-c1cc(C2CCCNC2)nc(N)n1` (stereo not drawn) [Example 65, 2-(2-amino-6-piperidin-3-ylpyrimidin-4-yl)-3-[(2-methylcyclopropyl)methoxy]phenol dihydrochloride], the inhibition in vivo at 30 mg/kg came to 75%.

For the compound `Nc1nc(-c2c(O)cccc2OCC(F)(F)C(F)F)cc(C2CCCNC2)n1` (stereo not drawn) [Example 89], the inhibition in vivo at 30 mg/kg came out at 87%.

Turning to `CC(COc1cccc(O)c1-c1cc(C2CCCNC2)nc(N)n1)Oc1ccccc1` (stereo not drawn) [Example 103], the inhibition in vivo at 30 mg/kg was 70%.

Turning to `Nc1nc(-c2c(O)cccc2OCCC2CC2)cc(C2CCCNC2)n1` (stereo not drawn) [Example 104], the inhibition in vivo at 30 mg/kg was determined as 86%.

Consider `Nc1nc(-c2c(O)cccc2OCCCC(F)(F)F)cc(C2CCCNC2)n1` (stereo not drawn) [Example 106], for which the inhibition in vivo at 30 mg/kg amounted to 82%.

Consider `CC1CCC(c2cc(-c3c(O)cccc3OCC3CC3)nc(N)n2)CN1` (stereo not drawn) [Example 140], for which the inhibition in vivo at 30 mg/kg came to 86%.

`Nc1nc(-c2c(O)cccc2OCC2CC2)cc(C2CCCNC2)n1` (stereo not drawn) [Example 141]: the inhibition in vivo at 30 mg/kg stood at 86%.

Staying with this experiment, now noted: oral administration of 30 mg/kg, 60 minutes before LPS, blood 90 minutes after LPS; 30 mg/kg.
For `Nc1nc(-c2c(O)cccc2OCC2CC2)cc(C2CCCNC2)n1` (stereo not drawn) [Example 142], the “inhibition of plasma TNF-α” value turned out to be 90%.
